How the values were obtained:
[1] = system: P12-Ichikawa; test: AUC of viability dose-response curve (% viability x log10 dose units); higher = less sensitive; details: 48 h
Summary of the method: (§1)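 In 1536-well plates, leukemia cells adapted to each medium (500 or 1000 cells/well) were exposed for 48 h at 37°C to library compounds in DMSO across 11 threefold doses, 47 μM down to 0.79 nM. Viability was read by CellTiter-Glo One luminescence and normalised per plate to DMSO and cell-free wells. A four-parameter log-logistic fit over log10 doses was integrated by trapezoidal rule. This yielded the area under the curve, with over-full-viability curves scaled and quality-control failures dropped.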

[2] = system: NOMO1; test: as above; details: 48 h
Summary of the method: as §1

[3] = system: SEM cells; test: as above; details: 48 h
Summary of the method: as §1

[4] = system: P12-Ichikawa; test: cell viability relative to DMSO control; higher = less cytotoxic; details: HPLM + 10% dialyzed FBS, 48 h
Summary of the method: (§2)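 NOMO1 or SEM (500 cells/well) or P12-Ichikawa (1000 cells/well) leukemia cells were adapted for at least four passages in each medium. They were seeded in 1536-well plates (5 μl) and pin-dosed with library compounds in DMSO over an 11-point threefold series, 47 μM to 0.79 nM. CellTiter-Glo One luminescence was read after 48 h at 37°C. Viability is the per-plate percentage relative to DMSO wells, with cell-free wells as background.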

[5] = system: SEM cells; test: as above; details: 48 h
Summary of the method: as §2

CC(=O)Nc1nc(C)c(-c2ccc(Cl)c([S+](=O)([O-])NCCO)c2)s1
AUC of viability dose-response curve
Details | [1] | [2] | [3]
HPLM + 10% dialyzed FBS | 374 | 364 | 366
RPMI 5 mM glucose + 10% FBS | 326 | 385 | 345
RPMI 5 mM glucose + 10% dialyzed FBS | 340 | 362 | 344

CCn1c(-c2nonc2N)nc2cncc(CNC3CCNCC3)c21
Details | AUC of viability dose-response curve | cell viability [%]
[1], HPLM + 10% dialyzed FBS | 399 | –
[1], RPMI 5 mM glucose + 10% FBS | 424 | –
[1], RPMI 5 mM glucose + 10% dialyzed FBS | 411 | –
[2], HPLM + 10% dialyzed FBS | 419 | –
[2], RPMI 5 mM glucose + 10% FBS | 437 | –
[2], RPMI 5 mM glucose + 10% dialyzed FBS | 443 | –
[3], HPLM + 10% dialyzed FBS | 414 | –
[3], RPMI 5 mM glucose + 10% FBS | 357 | –
[3], RPMI 5 mM glucose + 10% dialyzed FBS | 417 | –
[4], 0.000781 µM | – | 122
[4], 0.00234 µM | – | 123
[4], 0.00702 µM | – | 123
[4], 0.0211 µM | – | 123
[4], 0.0632 µM | – | 130
[4], 0.19 µM | – | 129
[4], 0.569 µM | – | 117
[4], 1.71 µM | – | 104
[4], 5.12 µM | – | 88.6
[4], 15.4 µM | – | 10.1
[4], 46.1 µM | – | 13.7

cell viability [%], [5]
Details | HPLM + 10% dialyzed FBS | RPMI 5 mM glucose + 10% FBS | RPMI 5 mM glucose + 10% dialyzed FBS
0.000781 µM | 119 | 101 | 123
0.00234 µM | 121 | 125 | 126
0.00702 µM | 126 | 124 | 113
0.0211 µM | 134 | 143 | 131
0.0632 µM | 137 | 144 | 118
0.19 µM | 131 | 152 | 115
0.569 µM | 129 | 120 | 137
1.71 µM | 109 | 61.5 | 110
5.12 µM | 96.1 | 58.3 | 100
15.4 µM | 60.7 | 18.9 | 45.2
46.1 µM | 30.8 | 15.8 | 22.7
